Experiments:
[1] = molecular target: T1, human AR (androgen receptor) (Homo sapiens, UniProt P10275); assay: Nuclear hormone receptor competition binding assay, AR; details: HEK293 lysate overexpressing human AR, [3H]-methyltrienolone; mean of n=7
T1 construct: expressed in transfected cells; host or cells: HEK293 (293-AR lysate)
T1 sequence (P10275 1-920): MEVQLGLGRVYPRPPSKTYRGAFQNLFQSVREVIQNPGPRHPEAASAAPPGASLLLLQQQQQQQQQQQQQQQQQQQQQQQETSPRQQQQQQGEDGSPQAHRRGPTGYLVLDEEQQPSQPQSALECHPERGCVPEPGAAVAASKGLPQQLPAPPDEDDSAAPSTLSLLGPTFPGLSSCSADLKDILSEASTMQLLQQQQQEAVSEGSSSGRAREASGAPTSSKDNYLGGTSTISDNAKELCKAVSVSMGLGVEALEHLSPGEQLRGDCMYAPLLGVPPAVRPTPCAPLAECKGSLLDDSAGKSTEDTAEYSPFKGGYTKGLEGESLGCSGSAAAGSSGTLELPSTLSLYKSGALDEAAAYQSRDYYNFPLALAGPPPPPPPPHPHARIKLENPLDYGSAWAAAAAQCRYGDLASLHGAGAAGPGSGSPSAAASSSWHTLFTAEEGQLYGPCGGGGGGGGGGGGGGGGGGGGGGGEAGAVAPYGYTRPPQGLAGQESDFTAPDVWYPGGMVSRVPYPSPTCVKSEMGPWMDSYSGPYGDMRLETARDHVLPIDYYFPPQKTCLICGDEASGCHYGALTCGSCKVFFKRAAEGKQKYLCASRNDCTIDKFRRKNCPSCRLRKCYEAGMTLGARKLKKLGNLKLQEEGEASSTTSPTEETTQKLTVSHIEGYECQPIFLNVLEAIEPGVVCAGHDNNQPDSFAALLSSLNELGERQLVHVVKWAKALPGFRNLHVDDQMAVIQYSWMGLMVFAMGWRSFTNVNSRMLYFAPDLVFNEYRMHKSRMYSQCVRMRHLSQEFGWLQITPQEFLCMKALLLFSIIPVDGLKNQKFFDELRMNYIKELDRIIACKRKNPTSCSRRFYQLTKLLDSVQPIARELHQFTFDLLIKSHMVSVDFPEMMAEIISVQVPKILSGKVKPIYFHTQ
Description: (§1) Cell lysates from human embryonic kidney HEK293 cells overexpressing human GR (glucocorticoid receptor), AR (androgen receptor), MR (mineralocorticoid receptor), or PR (progesterone receptor) are used for receptor-ligand competition binding assays to determine Ki values.
(§2) Briefly, steroid receptor competition binding assays are run in a buffer containing 20 mM Hepes buffer (pH=7.6), 0.2 mM EDTA, 75 mM NaCl, 1.5 mM MgCl2, 20% glycerol, 20 mM sodium molybdate, 0.2 mM DTT (dithiothreitol), 20 μg/ml aprotinin and 20 μg/ml leupeptin. Typically, steroid receptor binding assays include radio-labeled ligands, such as 0.3 nM [^3H]-dexamethasone for GR binding, 0.36 nM [^3H]-methyltrienolone for AR binding, 0.25 nM [^3H]-aldosterone for MR binding, and 0.29 nM [^3H]-methyltrienolone for PR binding, and either 20 μg 293-GR lysate, 22 μg 293-AR lysate, 20 μg 293-MR lysate or 40 μg 293-PR lysate per well. Assays are typically run in 96-well format. Competing test compounds are added at various concentrations ranging from about 0.01 nM to 10 μM. Non-specific binding is determined in the presence of 500 nM dexamethasone for GR binding, 500 nM aldosterone for MR binding, or 500 nM methyltrienolone for AR and PR binding. […] After an incubation of 2 hours, plates are read in a Wallac Microbeta counter. […]

[2] = molecular target: T2, human PR (progesterone receptor) (Homo sapiens, UniProt P06401); assay: Nuclear hormone receptor competition binding assay, PR; details: HEK293 lysate overexpressing human PR, [3H]-methyltrienolone; mean of n=7
T2 construct: expressed in transfected cells; host or cells: HEK293 (293-PR lysate)
T2 sequence (P06401 1-933): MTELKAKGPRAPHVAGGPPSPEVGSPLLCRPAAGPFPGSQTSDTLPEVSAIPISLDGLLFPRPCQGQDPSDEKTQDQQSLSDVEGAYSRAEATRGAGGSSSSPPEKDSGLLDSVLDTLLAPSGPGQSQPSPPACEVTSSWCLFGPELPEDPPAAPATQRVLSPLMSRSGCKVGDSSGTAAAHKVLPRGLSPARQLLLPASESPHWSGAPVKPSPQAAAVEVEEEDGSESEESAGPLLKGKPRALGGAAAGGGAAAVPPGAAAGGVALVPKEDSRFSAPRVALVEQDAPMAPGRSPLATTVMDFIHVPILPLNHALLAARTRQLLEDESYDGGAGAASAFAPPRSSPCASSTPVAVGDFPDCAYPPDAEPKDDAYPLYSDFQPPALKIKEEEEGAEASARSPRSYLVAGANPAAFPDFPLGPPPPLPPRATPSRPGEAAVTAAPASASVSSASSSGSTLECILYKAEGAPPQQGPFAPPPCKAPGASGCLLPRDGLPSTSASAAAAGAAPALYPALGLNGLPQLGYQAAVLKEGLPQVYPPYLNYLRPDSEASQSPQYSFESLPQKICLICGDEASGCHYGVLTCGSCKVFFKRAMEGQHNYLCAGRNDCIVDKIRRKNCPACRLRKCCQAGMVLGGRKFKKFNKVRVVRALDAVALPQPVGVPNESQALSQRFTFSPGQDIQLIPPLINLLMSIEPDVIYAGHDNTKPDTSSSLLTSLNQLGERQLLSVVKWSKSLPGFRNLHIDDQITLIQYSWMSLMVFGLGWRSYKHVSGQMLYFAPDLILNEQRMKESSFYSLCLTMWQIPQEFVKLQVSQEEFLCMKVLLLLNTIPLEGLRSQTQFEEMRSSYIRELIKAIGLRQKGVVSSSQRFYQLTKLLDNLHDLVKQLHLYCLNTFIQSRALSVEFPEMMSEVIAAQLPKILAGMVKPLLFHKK
Description: as §1, §2

Ki [1]: ~6.7 nM | Ki [2]: ~32 nM
SMILES: CC/C(=C1\c2ccc(F)cc2OCc2ncccc21)c1cccc(NS(C)(=O)=O)c1 [Compound (I), (E)-N-{3-[1-(8-Fluoro-11H-10-oxa-1-aza-dibenzo[a,d]cyclohepten-5-ylidene)-propyl]-phenyl}-methanesulfonamide]
